From patent US9920036B2, “Cyanoamino (aza)benzofuran compounds for the treatment of hepatitis C” (BRISTOL-MYERS SQUIBB COMPANY, priority 2014, dated 2018)
Where two headings read alike, the source gives them in different places.

Columns and labels:
[1] = tested on: genotype 1b (Con-1) HCV replicon; assay: HCV replicon luciferase assay; type: cell-based; conditions: Hepatitis C virus, 72 h, Huh-7 cells with genotype 1b HCV replicon, Renilla luciferase, 3 days incubation
Method: Cell lines. The cell lines used to evaluate compounds consist of a human hepatocyte derived cell line (Huh-7) that constitutively expresses a genotype 1b (Con-1) HCV replicon or a genotype 1b (Con-1) HCV replicon with an asparagine replacing the cysteine at amino acid 316, or a genotype 2a (JFH-1) replicon, containing a Renilla luciferase reporter gene. These cells were maintained in Dulbecco's modified Eagle medium (DMEM) containing 10% FBS, 100 U/mL penicillin/streptomycin and 1.0 mg/mL G418.
HCV replicon luciferase assay. To evaluate compound efficacy, titrated compounds were transferred to sterile 384-well tissue culture treated plates, and the plates were seeded with HCV replicon cells (50 μL at a density of 2.4×10^3 cells/well) in DMEM containing 4% FBS (final DMSO concentration at 0.5%). After 3 days incubation at 37° C., cells were analyzed for Renilla Luciferase activity using the EnduRen substrate (Promega cat #E6485) according to the manufacturer's directions. Briefly, the EnduRen substrate was diluted in DMEM and then added to the plates to a final concentration of 7.5 μM. The plates were incubated for at least 1 h at 37° C. then read on a Viewlux Imager (PerkinElmer) using a luminescence program. The 50% effective concentration (EC50) was calculated using the four-parameter logistic formula noted above.
Compound EC50 data is expressed as A: <100 nM; B=100-1000 nM; C>1000 nM).

[2] = tested on: HCV; conditions: cited from earlier work
[3] = tested on: HCV; conditions: combination therapy; cited from earlier work

Compound | EC50 ([1]; read-out: EC50 1b (class)) | other results
CCN(C#N)c1cc2oc(-c3ccc(F)cc3)c(C(=O)NC)c2cc1-c1cccc(C(=O)NCC(C)(C)c2ccccc2)c1 [Compound 1001] | < 0.1 µM | 
CCN(C#N)c1cc2oc(-c3ccc(F)cc3)c(C(=O)NC)c2cc1-c1cccc(C(=O)NCC(F)(F)C(F)(F)C(F)(F)C(F)(F)F)c1 [Compound 1002] | < 0.1 µM | EC50 ([1]; read-out: EC50 (μM) 1b): 0.047 µM
CCN(C#N)c1cc2oc(-c3ccc(F)cc3)c(C(=O)NC)c2cc1-c1ccc(OC)c(C(=O)NC(CF)(CF)CF)c1 [Compound 1003] | < 0.1 µM | 
CCN(C#N)c1cc2oc(-c3ccc(F)cc3)c(C(=O)NC)c2cc1-c1cccc(C(=O)NC(C)(C)CC(C)O)c1 (stereo not shown) [Compound 1004] | < 0.1 µM | EC50 ([1]; read-out: EC50 (μM) 1b): 0.013 µM
CCN(C#N)c1cc2oc(-c3ccc(F)cc3)c(C(=O)NC)c2cc1-c1cccc(C(=O)NC(C)(C)CO)c1 [Compound 1005] | < 0.1 µM | 
CCN(C#N)c1cc2oc(-c3ccc(F)cc3)c(C(=O)NC)c2cc1-c1cccc(C(=O)NC(C)(C)COC)c1 [Compound 1006] | < 0.1 µM | 
CCN(C#N)c1cc2oc(-c3ccc(F)cc3)c(C(=O)NC)c2cc1-c1cccc(C(=O)NC(C)(C)C#N)c1 [Compound 1007] | < 0.1 µM | EC50 ([1]; read-out: EC50 (μM) 1b): 0.0041 µM
CCN(C#N)c1cc2oc(-c3ccc(F)cc3)c(C(=O)NC)c2cc1-c1ccc(OC)c(C(=O)NC2(C#N)CCCC2)c1 [Compound 1008] | < 0.1 µM | 
CCN(C#N)c1cc2oc(-c3ccc(F)cc3)c(C(=O)NC)c2cc1-c1ccc(F)c(C(=O)NC2(c3ncccn3)CC2)c1 [Compound 1009] | < 0.1 µM | 
CCN(C#N)c1cc2oc(-c3ccc(F)cc3)c(C(=O)NC)c2cc1-c1cccc(C(=O)NC2(C(F)(F)F)CC2)c1 [Compound 1010] | < 0.1 µM | 
CCN(C#N)c1cc2oc(-c3ccc(F)cc3)c(C(=O)NC)c2cc1-c1cccc(C(=O)NC(C)(CO)CO)c1 [Compound 1011] | 0.1 to 1 µM | 
CCN(C#N)c1cc2oc(-c3ccc(F)cc3)c(C(=O)NC)c2cc1-c1cccc(C2=NC(C)(C)C(=O)O2)c1 [Compound 1012] | 0.1 to 1 µM | EC50 ([1]; read-out: EC50 (μM) 1b): 0.36 µM
CCN(C#N)c1cc2oc(-c3ccc(F)cc3)c(C(=O)NC)c2cc1-c1cccc(C(=O)NC2(c3ncccn3)CC2)c1 [Compound 1013] | < 0.1 µM | 
CCN(C#N)c1cc2oc(-c3ccc(F)cc3)c(C(=O)NC)c2cc1-c1ccc(OC)c(C(=O)NC(C)(C#N)C(C)C)c1 (stereo not shown) [Compound 1014] | < 0.1 µM | 
CCN(C#N)c1cc2oc(-c3ccc(F)cc3)c(C(=O)NC)c2cc1-c1cccc(C(=O)NC2(C#N)CCC2)c1 [Compound 1015] | < 0.1 µM | 
CCN(C#N)c1cc2oc(-c3ccc(F)cc3)c(C(=O)NC)c2cc1-c1cccc(C(=O)NC(C)(C)C(=O)OC)c1 [Compound 1016] | < 0.1 µM | 
[2H]C([2H])([2H])C(NC(=O)c1cc(-c2cc3c(C(=O)NC)c(-c4ccc(F)cc4)oc3cc2N(C#N)CC)ccc1OC)(C([2H])([2H])[2H])C([2H])([2H])[2H] [Compound 1017] | < 0.1 µM | EC50 ([1]; read-out: EC50 (μM) 1b): 0.0039 µM
CNC(=O)c1c(-c2ccc(F)cc2)oc2cc(N(CCO)S(C)(=O)=O)c(C3CC3)cc12 [HCV-796] |  | hepatic toxicity ([2]; extended dosing of the combination regimens): hepatic toxicity observed during extended dosing of the combination regimens; HCV RNA levels in patients ([2]; patients, single agent or combined with interferon and ribavirin): has shown an ability to reduce HCV RNA levels in patients
alpha-interferon and ribavirin |  | sustained efficacy in patients [3]: 40%
